According to PubChem BioAssay (NCI):
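Dose response: 5 concentrations. Exposure: 48 h. Format: 96-well plates. Endpoint: linear interpolation; highest concentration if not reached. TGI is the concentration that stops growth completely.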

Legend:
Assay in all cases: inhibition of tumour cell growth, NCI panel, 48 h
[1] = tested on: 786-0 renal
[2] = tested on: BT-549 breast
[3] = tested on: CAKI-1 renal
[4] = tested on: CCRF-CEM leukemia
[5] = tested on: EKVX NSCLC
[6] = tested on: HCT-15 colon
[7] = tested on: HL-60(TB) leukemia
[8] = tested on: HT29 colon
[9] = tested on: IGROV1 ovarian
[10] = tested on: LOX IMVI melanoma
[11] = tested on: M14 melanoma
[12] = tested on: MDA-MB-435
[13] = tested on: NCI-H23 lung
[14] = tested on: NCI-H460 lung
[15] = tested on: OVCAR-4 ovarian
[16] = tested on: OVCAR-8 ovarian
[17] = tested on: SK-OV-3 ovarian
[18] = tested on: UO-31 renal
[19] = tested on: MALME-3M melanoma

Measured: TGI

CC(=O)C1C(=O)C(=O)N(c2ccc([N+](=O)[O-])cc2)C1=O (stereo not drawn)
not listed: [19]
> 100 µM: all other assays above

COc1ccc(OC)c(/C=C2\CCc3ccccc3C2=O)c1
13.8 µM: [1]
22.9 µM: [15]
20.1 µM: [10]
18.5 µM: [19]
47.8 µM: [9]
22.7 µM: [5]
> 100 µM: [3]
27.5 µM: [14]
5.96 µM: [7]
14.8 µM: [4]
20.2 µM: [16]
29.3 µM: [6]
16.7 µM: [8]
18.8 µM: [17]
16.3 µM: [11]
17.3 µM: [13]

COc1ccc(-c2csc(Cc3nc4c(Br)cc(Br)cc4c(=O)n3-c3ccc(OC)cc3)n2)cc1
63.1 µM: [11]
not listed: [7] | [19]
> 100 µM: all other assays above

C(=C\C(Sc1ccccc1)c1ccccc1)/NNC1=NC(c2ccccc2)C(c2ccccc2)=NN1 (stereo not drawn)
49.5 µM: [4]
35.4 µM: [8]
37.6 µM: [7]
not listed: [2] | [12]
> 100 µM: all other assays above

CC(C)OC/N=C(/N)NC#N
43.7 µM: [10]
33.7 µM: [6]
not listed: [2] | [4] | [12]
> 100 µM: all other assays above

CC1=NN2C(c3ccc([N+](=O)[O-])cc3)=CSC2=NC(C)(C)C1
not listed: [2] | [3] | [12]
> 100 µM: all other assays above

COc1cc([C@@H]2c3cc4c(cc3[C@@H](OC(=O)c3cccc(N)c3)C3COC(=O)[C@@H]32)OCO4)cc(OC)c1O (stereo partly drawn)
28.9 µM: [1]
24.5 µM: [8]
6.2 µM: [13]
> 100 µM: [5] | [15] | [16]
> 64.8 µM: [9]
> 75.2 µM: [17]
33.8 µM: [10]
28.3 µM: [11]
> 52.6 µM: [6]
> 41.2 µM: [7]
29.6 µM: [3]
26.4 µM: [18]
20.4 µM: [14]
> 56.3 µM: [19]
> 43 µM: [4]

COc1cc2c(oc(=O)c3cc4cc([Si](C)(C)C)oc4c(OC)c32)c2cccc(O)c12
not listed: [2] | [12]
> 100 µM: all other assays above

C=CCCCN1CCCC(C)C1=S (stereo not drawn)
not listed: [2] | [3] | [12]
> 100 µM: all other assays above

CC(=O)c1ccccc1NC(=O)C(=O)C(C(=O)c1ccccc1-c1ccccc1)C1OC(=O)c2ccccc21 (stereo not drawn)
35.3 µM: [14]
35.4 µM: [11]
32.8 µM: [18]
56.1 µM: [8]
81.2 µM: [7]
34.3 µM: [1] | [19]
65 µM: [5]
54.3 µM: [9]
31 µM: [13]
37.7 µM: [10]
> 100 µM: [3] | [4] | [15] | [17]
34.9 µM: [6]
47.9 µM: [16]

O=C(O)CCCNc1ncc2c(n1)-c1ccccc1OC2
not listed: [2]
> 100 µM: all other assays above

Cn1c2ccccc2c2ccc3c(c21)C(=O)C(c1ccccc1)=CC3=O
22.2 µM: [6]
32.8 µM: [1]
75.2 µM: [5]
84.4 µM: [19]
42.6 µM: [16]
39.3 µM: [9]
not listed: [2] | [10] | [12] | [15]
> 100 µM: all other assays above

CC(=O)NNc1nc(C)c(C(=O)NNC(=O)C(=O)Nc2c([N+](=O)[O-])ccc(C)c2C)s1
not listed: [2] | [12] | [17]
> 100 µM: all other assays above

CCOC(=O)CSC1NC(C(=O)OC)CC1OC (stereo not drawn)
not listed: [7] | [10]
> 100 µM: all other assays above
